Laboratory results: EP4678644A1, “SUBSTITUTED DIHYDROTHIENOPYRIMIDINE COMPOUND, PREPARATION METHOD THEREFOR, AND USE THEREOF” (Shanghai Yidi Biotechnology Co., Ltd., priority 2023, dated 2024)
One block for each compound: values may come before it.

Experiments:
[1] = target: PDE4D2 (Homo sapiens, UniProt Q08499); assay: PDE4D2 enzyme experiment (AMP-glo, cAMP substrate); type: biochemical; conditions: read-out: PDE4D2 IC50 Binding
Excerpt: Inhibition rate % ^= (1 - (RLUpositive control - RLUcompound)/(RLUpositive control - RLUnegative control)) * 100.

[2] = target: T1, PDE4B2 (Homo sapiens, UniProt Q07343); assay: PDE4B2 enzyme experiment (AMP-glo, cAMP substrate); type: biochemical; conditions: for inhibition at 0.01 µM: read-out: PDE4B2 Enzyme Inhibition% @10 nM; for inhibition at 0.1 µM: read-out: PDE4B2 Enzyme Inhibition% @100 nM
T1 construct: expressed in transfected cells; host or cells: Flp-In-293 (Flpin-293-PDE4B2 [sic])
T1 sequence (Q07343 1-564 isoform Q07343-2): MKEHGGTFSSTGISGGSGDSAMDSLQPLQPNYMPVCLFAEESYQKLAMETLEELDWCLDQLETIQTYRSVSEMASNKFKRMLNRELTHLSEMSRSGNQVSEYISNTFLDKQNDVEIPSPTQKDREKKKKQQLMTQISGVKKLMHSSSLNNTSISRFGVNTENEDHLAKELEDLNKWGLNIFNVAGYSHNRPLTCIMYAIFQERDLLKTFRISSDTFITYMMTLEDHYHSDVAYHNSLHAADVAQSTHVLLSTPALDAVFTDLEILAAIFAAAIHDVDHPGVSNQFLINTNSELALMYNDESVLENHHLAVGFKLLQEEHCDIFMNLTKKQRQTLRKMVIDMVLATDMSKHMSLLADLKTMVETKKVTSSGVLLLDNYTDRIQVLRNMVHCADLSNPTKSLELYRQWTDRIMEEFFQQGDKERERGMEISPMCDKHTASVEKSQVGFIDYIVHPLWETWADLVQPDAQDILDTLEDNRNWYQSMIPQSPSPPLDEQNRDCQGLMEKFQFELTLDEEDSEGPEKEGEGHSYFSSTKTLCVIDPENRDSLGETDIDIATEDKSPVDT

[3] = target: T1, PDE4B2; assay: PDE4B2 cell experiment (cAMP, Eu-cAMP tracer / Ulight-anti-cAMP); type: cell-based; conditions: Flpin-293-PDE4B2 cells; for IC50: Foskolin; for Cell Inhibition% @10 nM / inhibition at 0.01 µM: 10 nM; for Cell Inhibition% @100 nM / inhibition at 0.1 µM: 100 nM

Sequence of PDE4D2 (Q08499 303-809 limits assumed): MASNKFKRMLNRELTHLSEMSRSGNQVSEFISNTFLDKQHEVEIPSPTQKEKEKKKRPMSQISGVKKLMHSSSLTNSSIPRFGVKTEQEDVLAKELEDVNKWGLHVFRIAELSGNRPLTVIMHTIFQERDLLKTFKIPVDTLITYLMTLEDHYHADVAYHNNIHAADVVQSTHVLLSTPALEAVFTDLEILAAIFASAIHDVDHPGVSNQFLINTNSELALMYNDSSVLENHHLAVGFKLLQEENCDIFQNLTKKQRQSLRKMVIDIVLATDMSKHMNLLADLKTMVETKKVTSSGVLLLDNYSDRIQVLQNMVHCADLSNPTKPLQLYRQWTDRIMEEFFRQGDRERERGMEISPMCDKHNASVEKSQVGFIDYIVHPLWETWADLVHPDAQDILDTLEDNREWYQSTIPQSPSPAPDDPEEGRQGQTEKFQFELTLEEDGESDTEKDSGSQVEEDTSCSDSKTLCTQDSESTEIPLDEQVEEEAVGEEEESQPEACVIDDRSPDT

- IC50 [1]: 3.21 nM
Compound: [O-][S@+]1CCc2nc(N3CCc4cc(Cl)ccc4C3)nc(NC3(CO)CCC3)c21 [Compound 18, (R)-2-(6-chloro-3,4-dihydroisoquinolin-2(1H)-yl)-4-((1-(hydroxymethyl)cyclobutyl)amino)-6,7-dihydrothieno[3,2-d]pyrimidine 5-oxide]

- IC50 [1]: 7.72 nM
Compound: [O-][S@+]1CCc2nc(N3CCc4c(nn5cc(Cl)cnc45)C3)nc(NC3(CO)CCC3)c21 [Compound 1, (R)-2-(3-chloro-9,10-dihydropyrido[3',4':3,4]pyrazolo[1,5-a]pyrimidin-8(7H)-yl)-4-((1-(hydroxymethyl)cyclobutyl)amino)-6,7-dihydrothieno[3,2-d]pyrimidine 5-oxide]

- IC50 [1]: 0.587 nM
Compound: [O-][S@+]1CCc2nc(N3CCc4c(cnc5cc(Cl)ccc45)C3)nc(NC3(CO)CCC3)c21 [Compound 72, (R)-2-(8-chloro-1,4-dihydrobenzo[c][2,7]naphthyridin-3(2H)-yl)-4-((1-(hydroxymethyl)cyclobutyl)amino)-6,7-dihydrothieno[3,2-d]pyrimidine 5-oxide]

- IC50 [2]: 7.17 nM
- IC50 [3]: 205 nM
Compound: [O-][S+]1CCc2nc(N3CCc4c(Cl)cccc4C3)nc(NC3(CO)CCC3)c21 (stereo not drawn) [Compound 19]

- IC50 [2]: 4.21 nM
- Cell Inhibition% @10 nM [3]: 31.1%
- Cell Inhibition% @100 nM [3]: 76.6%
Compound: [O-][S+]1CCc2nc(N3CCc4nc(Br)sc4C3)nc(NC3(CO)CCC3)c21 (stereo not drawn) [Compound 63]

- IC50 [1]: 3.38 nM
Compound: [O-][S@+]1CCc2nc(N3CCc4nc(N5CCCC5)ccc4C3)nc(NC3(CO)CCC3)c21 [Compound 135, (R)-4-((1-(hydroxymethyl)cyclobutyl)amino)-2-(2-(pyrrolidin-1-yl)-7,8-dihydro-1,6-naphthyridin-6(5H)-yl)-6,7-dihydrothieno[3,2-d]pyrimidine 5-oxide]

- IC50 [1]: 0.958 nM
Compound: [O-][S@+]1CCc2nc(N3CCc4c(c(Cl)nc5cc(Cl)ccc45)C3)nc(NC3(CO)CCC3)c21 [Compound 73, (R)-2-(5,8-dichloro-1,4-dihydrobenzo[c][2,7]naphthyridin-3(2H)-yl)-4-((1-(hydroxymethyl)cyclobutyl)amino)-6,7-dihydrothieno[3,2-d]pyrimidine 5-oxide]

- IC50 [2]: 6.39 nM
- IC50 [3]: 562 nM
Compound: [O-][S@+]1CCc2nc(N3CC[C@H]4c5ccc(Cl)cc5OC[C@@H]4C3)nc(NC3(CO)CCC3)c21 [Compound 13, (R)-2-((4aS,10bR)-8-chloro-1,4a,5,10b-tetrahydro-2H-chromeno[3,4-c]pyridin-3(4H)-yl)-4-((1-(hydroxymethyl)cyclobutyl)amino)-6,7-dihydrothieno[3,2-d]pyrimidine 5-oxide]

- PDE4B2 Enzyme Inhibition% @10 nM [2]: 98.91%
- PDE4B2 Enzyme Inhibition% @100 nM [2]: 100.22%
- Cell Inhibition% @10 nM [3]: 69.61%
- Cell Inhibition% @100 nM [3]: 99.05%
Compound: [O-][S+]1CCc2nc(N3CCc4ccc(Br)cc4CC3)nc(NC3(CO)CCC3)c21 (stereo not drawn) [Compound 46]

- IC50 [1]: 0.089 nM
Compound: Cn1nccc1-c1ccc2c(c1)CCN(c1nc3c(c(NC4(CO)CCC4)n1)[S@+]([O-])CC3)C2 [Compound 76, (R)-4-((1-(hydroxymethyl)cyclobutyl)amino)-2-(6-(1-methyl-1H-pyrazol-5-yl)-3,4-dihydroisoquinolin-2(1H)-yl)-6,7-dihydrothieno[3,2-d]pyrimidine 5-oxide]

- inhibition at 0.01 µM [2]: 65.8%
- inhibition at 0.1 µM [2]: 99.3%
- inhibition at 0.01 µM [3]: 21.2%
- inhibition at 0.1 µM [3]: 65.9%
Compound: N#Cc1ccc2c(c1)CN(c1nc3c(c(NC4(CO)CCC4)n1)[S@+]([O-])CC3)C2 [Compound 60, (R)-2-(4-((1-(hydroxymethyl)cyclobutyl)amino)-5-oxido-6,7-dihydrothieno[3,2-d]pyrimidin-2-yl)isoindoline-5-carbonitrile]

- IC50 [1]: 1.13 nM
Compound: [O-][S@+]1CCc2nc(N3CCc4cc(C5CC5)ccc4C3)nc(NC3(CO)CCC3)c21 [Compound 66, (R)-2-(6-cyclopropyl-3,4-dihydroisoquinolin-2(1H)-yl)-4-((1-(hydroxymethyl)cyclobutyl)amino)-6,7-dihydrothieno[3,2-d]pyrimidine 5-oxide]

- inhibition at 0.01 µM [2]: 45%
- inhibition at 0.1 µM [2]: 94.1%
- inhibition at 0.01 µM [3]: 3.5%
- inhibition at 0.1 µM [3]: 15.1%
Compound: [O-][S@+]1CCc2nc(N3Cc4nc5cc(Cl)ccn5c4C3)nc(NC3(CO)CCC3)c21 [Compound 8, (R)-2-(6-chloro-1,3-dihydro-2H-pyrrolo[3',4':4,5]imidazo[1,2-a]pyridin-2-yl)-4-((1-(hydroxymethyl)cyclobutyl)amino)-6,7-dihydrothieno[3,2-d]pyrimidine 5-oxide]

- IC50 [1]: 3.46 nM
Compound: [O-][S@+]1CCc2nc(N3CCc4nc(N5CCC5)sc4C3)nc(NC3(CO)CCC3)c21 [Compound 64, (R)-2-(2-(azetidin-1-yl)-6,7-dihydrothiazolo[5,4-c]pyridin-5(4H)-yl)-4-((1-(hydroxymethyl)cyclobutyl)amino)-6,7dihydrothieno[3,2-d]pyrimidine 5-oxide]

- IC50 [2]: 9.19 nM
- Cell Inhibition% @1 nM ([3]; 1 nM): 1.99%
- Cell Inhibition% @10 nM [3]: 11.19%
- Cell Inhibition% @100 nM [3]: 59.37%
Compound: [O-][S+]1CCc2nc(N3CCc4cnc(Cl)cc4C3)nc(NC3(CO)CCC3)c21 (stereo not drawn) [Compound 79]

- inhibition at 0.01 µM [2]: 20.4%
- inhibition at 0.1 µM [2]: 78.8%
- inhibition at 0.001 µM ([3]; 1 nM): 4.67%
- inhibition at 0.01 µM [3]: 48.6%
- inhibition at 0.1 µM [3]: 96.7%
Compound: CN1CC=C(c2ccc3c(c2)CCN(c2nc4c(c(NC5(CO)CCC5)n2)[S@+]([O-])CC4)C3)C1 [Compound 169, (R)-4-((1-(hydroxymethyl)cyclobutyl)amino)-2-(6-(1-methyl-2,5-dihydro-1H-pyrrol-3-yl)-3,4-dihydroisoquinolin-2(1H)-yl)-6,7-dihydrothieno[3,2-d]pyrimidine 5-oxide]

- IC50 [1]: 6.38 nM
Compound: [O-][S@+]1CCc2nc(N3CCc4c(ccc(N5CCCC5)c4F)C3)nc(NC3(CO)CCC3)c21 [Compound 180, (R)-2-(5-fluoro-6-(pyrrolidin-1-yl)-3,4-dihydroisoquinolin-2(1H)-yl)-4-((1-(hydroxymethyl)cyclobutyl)amino)-6,7-dihydrothieno[3,2-d]pyrimidine 5-oxide]

- IC50 [1]: 1.09 nM
Compound: CNc1nc2cc(Cl)ccc2c2c1CN(c1nc3c(c(NC4(CO)CCC4)n1)[S@+]([O-])CC3)CC2 [Compound 74, (R)-2-(8-chloro-5-(methylamino)-1,4-dihydrobenzo[c][2,7]naphthyridin-3(2H)-yl)-4-((1-(hydroxymethyl)cyclobutyl)amino)-6,7-dihydrothieno[3,2-d]pyrimidine 5-oxide]

- inhibition at 0.01 µM [2]: 99.8%
- inhibition at 0.1 µM [2]: 100%
- IC50 [3]: 3.99 nM
Compound: Cn1c(=O)c2c(c3ccc(Cl)cc31)CCN(c1nc3c(c(NC4(CO)CCC4)n1)[S@+]([O-])CC3)C2 [Compound 45, (R)-8-chloro-3-(4-((1-(hydroxymethyl)cyclobutyl)amino)-5-oxido-6,7-dihydrothieno[3,2-d]pyrimidin-2-yl)-6-methyl-2,3,4,6-tetrahydrobenzo[c][2,7]naphthyridin-5(1H)-one]

- IC50 [1]: 1.88 nM
Compound: [O-][S@+]1CCc2nc(N3CCc4nc(N5CCCC5)cnc4C3)nc(NC3(CO)CCC3)c21 [Compound 218, (R)-4-((1-(hydroxymethyl)cyclobutyl)amino)-2-(2-(pyrrolidin-1-yl)-7,8-dihydropyrido[3,4-b]pyrazin-6(5H)-yl)-6,7-dihydrothieno[3,2-d]pyrimidine 5-oxide]

- IC50 [2]: 2.99 nM
- IC50 [3]: 89.5 nM
Compound: [O-][S+]1CCc2nc(N3CCc4sccc4C3)nc(NC3(CO)CCC3)c21 (stereo not drawn) [Compound 37]

- IC50 [2]: 2.11 nM
- Cell Inhibition% @10 nM [3]: 18.76%
- Cell Inhibition% @100 nM [3]: 79.24%
Compound: [O-][S+]1CCc2nc(N3CCc4cccc(Cl)c4C3)nc(NC3(CO)CCC3)c21 (stereo not drawn) [Compound 21]

- IC50 [1]: 0.56 nM
Compound: O=C1OCCN1c1ccc2c(c1)CCN(c1nc3c(c(NC4(CO)CCC4)n1)[S@+]([O-])CC3)C2 [Compound 80, (R)-3-(2-(4-((1-(hydroxymethyl)cyclobutyl)amino)-5-oxido-6,7-dihydrothieno[3,2-d]pyrimidin-2-yl)-1,2,3,4-tetrahydroisoquinolin-6-yl)oxazolidin-2-one]

- IC50 [1]: 1.22 nM
Compound: [O-][S@+]1CCc2nc(N3CCc4cc(Br)sc4C3)nc(NC3(CO)CCC3)c21 [Compound 53, (R)-2-(2-bromo-4,7-dihydrothieno[2,3-c]pyridin-6(5H)-yl)-4-((1-(hydroxymethyl)cyclobutyl)amino)-6,7-dihydrothieno[3,2-d]pyrimidine 5-oxide]

- inhibition at 0.001 µM ([2]; read-out: PDE4B2 Enzyme Inhibition% @1 nM): 38.9%
- inhibition at 0.01 µM [2]: 90.5%
- inhibition at 0.1 µM [2]: 100%
- inhibition at 0.001 µM ([3]; 1 nM): 11.8%
- inhibition at 0.01 µM [3]: 14.9%
- inhibition at 0.1 µM [3]: 71.6%
Compound: [O-][S@+]1CCc2nc(N3CCc4scc(Br)c4C3)nc(NC3(CO)CCC3)c21 [Compound 57, (R)-2-(3-bromo-6,7-dihydrothieno[3,2-c]pyridin-5(4H)-yl)-4-((1-(hydroxymethyl)cyclobutyl)amino)-6,7-dihydrothieno[2,2-d]pyrimidine 5-oxide]

- PDE4B2 Enzyme Inhibition% @10 nM [2]: 70.90%
- PDE4B2 Enzyme Inhibition% @100 nM [2]: 98.20%
- Cell Inhibition% @10 nM [3]: 17.7%
- Cell Inhibition% @100 nM [3]: 55.2%
Compound: O=[N+]([O-])c1ccc2c(c1)CN(c1nc3c(c(NC4(CO)CCC4)n1)[S+]([O-])CC3)C2 (stereo not drawn) [Compound 61]

- IC50 [2]: 1.85 nM
- Cell Inhibition% @10 nM [3]: 14.18%
- Cell Inhibition% @100 nM [3]: 69.92%
Compound: [O-][S+]1CCc2nc(N3CCc4ccc(Cl)cc4C3)nc(NC3(CO)CCC3)c21 (stereo not drawn) [Compound 20]

- inhibition at 0.01 µM [2]: 87%
- inhibition at 0.1 µM [2]: 101%
- inhibition at 0.01 µM [3]: 25.7%
- inhibition at 0.1 µM [3]: 76.2%
Compound: [O-][S@+]1CCc2nc(N3CCc4cc5c(cc4C3)OC(F)(F)O5)nc(NC3(CO)CCC3)c21 [Compound 48, (R)-2-(2,2-difluoro-7,8-dihydro-[1,3]dioxolo[4,5-g]isoquinolin-6(5H)-yl)-4-((1-(hydroxymethyl)cyclobutyl)amino)-6,7-dihydrothieno[3,2-d]pyrimidine 5-oxide]
